Data: publication PMC7933434, “Entropy-driven binding of gut bacterial β-glucuronidase inhibitors ameliorates irinotecan-induced toxicity” (Communications Biology, 2021)
Several values for one entry are separate records, joined by “and”; a condition that tells them apart may be missing. Identical values can stand only once.

Columns and labels:
HsGUS (human GUS) = biological target: T1, HsGUS (human GUS) (Homo sapiens, UniProt P08236); test: GUS inhibition assay, hydrolysis of 4-methylumbelliferyl-β-glucuronide, HsGUS; type: biochemical; set-up: GUS activity (hydrolysis rate of MUG): unit not given here
T1 construct: HsGUS was prepared as described[37]; made in house
T1 sequence (P08236 23-651): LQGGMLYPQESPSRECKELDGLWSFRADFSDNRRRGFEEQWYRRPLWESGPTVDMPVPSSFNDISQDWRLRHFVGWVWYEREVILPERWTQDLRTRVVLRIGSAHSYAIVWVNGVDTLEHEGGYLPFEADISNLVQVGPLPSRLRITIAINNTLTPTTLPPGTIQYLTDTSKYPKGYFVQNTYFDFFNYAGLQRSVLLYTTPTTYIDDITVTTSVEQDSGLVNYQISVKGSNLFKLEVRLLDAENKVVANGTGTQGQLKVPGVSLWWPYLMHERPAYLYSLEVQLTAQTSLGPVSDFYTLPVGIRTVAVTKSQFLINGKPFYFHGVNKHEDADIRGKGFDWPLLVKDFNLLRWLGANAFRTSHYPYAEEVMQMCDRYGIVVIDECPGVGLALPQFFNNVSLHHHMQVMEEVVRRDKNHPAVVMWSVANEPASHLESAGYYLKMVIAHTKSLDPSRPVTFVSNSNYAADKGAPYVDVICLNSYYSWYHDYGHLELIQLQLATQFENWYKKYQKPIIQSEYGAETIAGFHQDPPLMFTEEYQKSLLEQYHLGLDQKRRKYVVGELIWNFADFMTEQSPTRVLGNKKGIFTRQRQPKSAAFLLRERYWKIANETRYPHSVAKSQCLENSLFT

BdGUS = BdGUS (Bifidobacterium dentium, UniProt D2Q7B1); test: biochemical; type: binding
[1] = set-up: method as in PMID 18537837; conditions: endocyclic amine; cited from earlier work
[2] = BdGUS, Tris buffer (250 mM NaCl, 20 mM Tris, pH 8.0), 298 K

Chain of BdGUS (D2Q7B1 entry or part of it): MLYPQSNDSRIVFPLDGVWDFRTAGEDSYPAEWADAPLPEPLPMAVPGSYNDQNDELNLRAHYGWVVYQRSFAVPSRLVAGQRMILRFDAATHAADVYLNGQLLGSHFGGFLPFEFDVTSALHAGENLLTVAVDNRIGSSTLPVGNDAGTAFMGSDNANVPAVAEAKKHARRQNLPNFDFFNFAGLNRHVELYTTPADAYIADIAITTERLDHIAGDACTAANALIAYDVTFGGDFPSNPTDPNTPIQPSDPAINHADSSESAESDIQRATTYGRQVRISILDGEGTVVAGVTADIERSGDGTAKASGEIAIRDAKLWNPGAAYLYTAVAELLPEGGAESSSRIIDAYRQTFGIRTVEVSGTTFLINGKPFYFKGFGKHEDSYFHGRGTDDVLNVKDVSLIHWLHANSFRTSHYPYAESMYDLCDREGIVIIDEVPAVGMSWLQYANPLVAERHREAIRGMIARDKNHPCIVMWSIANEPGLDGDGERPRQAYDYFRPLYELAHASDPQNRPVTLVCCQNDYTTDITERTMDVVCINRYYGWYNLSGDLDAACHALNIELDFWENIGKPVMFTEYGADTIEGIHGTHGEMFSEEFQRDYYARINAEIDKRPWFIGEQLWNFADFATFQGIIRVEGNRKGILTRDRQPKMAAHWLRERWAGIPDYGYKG

Which Ki (HsGUS (human GUS); HsGUS, 50 mM sodium acetate pH 4.5, 37 °C) does the source give for CCC[C@@H]1NC[C@@H](O)[C@H](O)[C@H]1C(=O)O [Inhibitor 2, C6-propyl UIFG] here?
The Ki was 36.1 ± 7.5 µM.

And the “GUS activity (hydrolysis rate of MUG)” value (HsGUS (human GUS); [Inhibitor 2] =2 μM, [MUG] 0.1 mM)?
Its value is 948.853 and 951.385.

What about the “GUS activity (hydrolysis rate of MUG)” value (HsGUS (human GUS); [Inhibitor 2] =2 μM, [MUG] 0.2 mM) of the same compound?
The value was 1632.03 and 1685.82.

And the “GUS activity (hydrolysis rate of MUG)” value (HsGUS (human GUS); [Inhibitor 2] =2 μM, [MUG] 0.4 mM)?
The value was 2642.25 and 2523.4.

And the “GUS activity (hydrolysis rate of MUG)” value (HsGUS (human GUS); [Inhibitor 2] =2 μM, [MUG] 0.6 mM)?
Its value is 3352.21 and 3311.67.

And the “GUS activity (hydrolysis rate of MUG)” value (HsGUS (human GUS); [Inhibitor 2] =2 μM, [MUG] 0.8 mM)?
The value was 3926.69 and 3841.33.

And the “GUS activity (hydrolysis rate of MUG)” value (HsGUS (human GUS); [Inhibitor 2] =2 μM, [MUG] 1.2 mM)?
Its value is 4682.68 and 4814.95.

What about the “GUS activity (hydrolysis rate of MUG)” value (HsGUS (human GUS); [Inhibitor 2] =2 μM, [MUG] 1.6 mM) of the same compound?
The value was 5075.17 and 5261.75.

What about the “GUS activity (hydrolysis rate of MUG)” value (HsGUS (human GUS); [Inhibitor 2] =2 μM, [MUG] 2 mM) of the same compound?
The value was 5616.94 and 5799.63.

And the “GUS activity (hydrolysis rate of MUG)” value (HsGUS (human GUS); [Inhibitor 2] =5 μM, [MUG] 0.1 mM)?
Its value is 870.401 and 901.046.

And the “GUS activity (hydrolysis rate of MUG)” value (HsGUS (human GUS); [Inhibitor 2] =5 μM, [MUG] 0.2 mM)?
The value was 1774.12 and 1609.49.

And the “GUS activity (hydrolysis rate of MUG)” value (HsGUS (human GUS); [Inhibitor 2] =5 μM, [MUG] 0.4 mM)?
Its value is 2566.62 and 2497.87.

And the “GUS activity (hydrolysis rate of MUG)” value (HsGUS (human GUS); [Inhibitor 2] =5 μM, [MUG] 0.6 mM)?
The value was 3244.91 and 3390.27.

And the “GUS activity (hydrolysis rate of MUG)” value (HsGUS (human GUS); [Inhibitor 2] =5 μM, [MUG] 0.8 mM)?
The value was 3688.45 and 3865.44.

What about the “GUS activity (hydrolysis rate of MUG)” value (HsGUS (human GUS); [Inhibitor 2] =5 μM, [MUG] 1.2 mM) of the same compound?
Its value is 4481.74 and 4357.11.

What about the “GUS activity (hydrolysis rate of MUG)” value (HsGUS (human GUS); [Inhibitor 2] =5 μM, [MUG] 1.6 mM) of the same compound?
The value was 5234.04 and 5031.9.

What about the “GUS activity (hydrolysis rate of MUG)” value (HsGUS (human GUS); [Inhibitor 2] =5 μM, [MUG] 2 mM) of the same compound?
The value was 5683.23 and 5771.06.

What about the “GUS activity (hydrolysis rate of MUG)” value (HsGUS (human GUS); [Inhibitor 2] =10 μM, [MUG] 0.1 mM) of the same compound?
The value was 788.919 and 835.551.

And the “GUS activity (hydrolysis rate of MUG)” value (HsGUS (human GUS); [Inhibitor 2] =10 μM, [MUG] 0.2 mM)?
Its value is 1388.11 and 1357.62.

And the “GUS activity (hydrolysis rate of MUG)” value (HsGUS (human GUS); [Inhibitor 2] =10 μM, [MUG] 0.4 mM)?
Its value is 2139.7 and 2292.26.

What about the “GUS activity (hydrolysis rate of MUG)” value (HsGUS (human GUS); [Inhibitor 2] =10 μM, [MUG] 0.6 mM) of the same compound?
Its value is 2815.06 and 3009.55.

And the “GUS activity (hydrolysis rate of MUG)” value (HsGUS (human GUS); [Inhibitor 2] =10 μM, [MUG] 0.8 mM)?
The value was 3419.24 and 3416.94.

What about the “GUS activity (hydrolysis rate of MUG)” value (HsGUS (human GUS); [Inhibitor 2] =10 μM, [MUG] 1.2 mM) of the same compound?
Its value is 4195.01 and 4091.63.

And the “GUS activity (hydrolysis rate of MUG)” value (HsGUS (human GUS); [Inhibitor 2] =10 μM, [MUG] 1.6 mM)?
Its value is 5141.39 and 4873.96.

What about the “GUS activity (hydrolysis rate of MUG)” value (HsGUS (human GUS); [Inhibitor 2] =10 μM, [MUG] 2 mM) of the same compound?
Its value is 5569.48 and 4956.18.

What about the “GUS activity (hydrolysis rate of MUG)” value (HsGUS (human GUS); [Inhibitor 2] =20 μM, [MUG] 0.1 mM) of the same compound?
The value was 633.046 and 650.421.

What about the “GUS activity (hydrolysis rate of MUG)” value (HsGUS (human GUS); [Inhibitor 2] =20 μM, [MUG] 0.2 mM) of the same compound?
The value was 1058.97 and 1051.89.

And the “GUS activity (hydrolysis rate of MUG)” value (HsGUS (human GUS); [Inhibitor 2] =20 μM, [MUG] 0.4 mM)?
Its value is 1746.1 and 1806.97.

What about the “GUS activity (hydrolysis rate of MUG)” value (HsGUS (human GUS); [Inhibitor 2] =20 μM, [MUG] 0.6 mM) of the same compound?
The value was 2323.32 and 2357.04.

What about the “GUS activity (hydrolysis rate of MUG)” value (HsGUS (human GUS); [Inhibitor 2] =20 μM, [MUG] 0.8 mM) of the same compound?
Its value is 2744.58 and 2819.54.

What about the “GUS activity (hydrolysis rate of MUG)” value (HsGUS (human GUS); [Inhibitor 2] =20 μM, [MUG] 1.2 mM) of the same compound?
The value was 3443.09 and 3077.07.

What about the “GUS activity (hydrolysis rate of MUG)” value (HsGUS (human GUS); [Inhibitor 2] =20 μM, [MUG] 1.6 mM) of the same compound?
The value was 3957.48 and 3836.46.

What about the “GUS activity (hydrolysis rate of MUG)” value (HsGUS (human GUS); [Inhibitor 2] =20 μM, [MUG] 2 mM) of the same compound?
The value was 4613.38 and 4482.85.

What about the “GUS activity (hydrolysis rate of MUG)” value (HsGUS (human GUS); [Inhibitor 2] =40 μM, [MUG] 0.1 mM) of the same compound?
Its value is 425.121 and 430.469.

What about the “GUS activity (hydrolysis rate of MUG)” value (HsGUS (human GUS); [Inhibitor 2] =40 μM, [MUG] 0.2 mM) of the same compound?
Its value is 709.381 and 742.235.

What about the “GUS activity (hydrolysis rate of MUG)” value (HsGUS (human GUS); [Inhibitor 2] =40 μM, [MUG] 0.4 mM) of the same compound?
Its value is 1260.88 and 1281.33.

What about the “GUS activity (hydrolysis rate of MUG)” value (HsGUS (human GUS); [Inhibitor 2] =40 μM, [MUG] 0.6 mM) of the same compound?
The value was 1728.03 and 1805.44.

What about the “GUS activity (hydrolysis rate of MUG)” value (HsGUS (human GUS); [Inhibitor 2] =40 μM, [MUG] 0.8 mM) of the same compound?
Its value is 2092.2 and 2090.09.

And the “GUS activity (hydrolysis rate of MUG)” value (HsGUS (human GUS); [Inhibitor 2] =40 μM, [MUG] 1.2 mM)?
Its value is 2609.86 and 2615.59.

And the “GUS activity (hydrolysis rate of MUG)” value (HsGUS (human GUS); [Inhibitor 2] =40 μM, [MUG] 1.6 mM)?
Its value is 3152.02 and 3056.96.

And the “GUS activity (hydrolysis rate of MUG)” value (HsGUS (human GUS); [Inhibitor 2] =40 μM, [MUG] 2 mM)?
The value was 3549.78 and 3510.91.

And the “GUS activity (hydrolysis rate of MUG)” value (HsGUS (human GUS); [Inhibitor 2] =75 μM, [MUG] 0.1 mM)?
The value was 269.697 and 248.688.

And the “GUS activity (hydrolysis rate of MUG)” value (HsGUS (human GUS); [Inhibitor 2] =75 μM, [MUG] 0.2 mM)?
The value was 469.532 and 449.551.

What about the “GUS activity (hydrolysis rate of MUG)” value (HsGUS (human GUS); [Inhibitor 2] =75 μM, [MUG] 0.4 mM) of the same compound?
Its value is 868.241 and 807.629.

What about the “GUS activity (hydrolysis rate of MUG)” value (HsGUS (human GUS); [Inhibitor 2] =75 μM, [MUG] 0.6 mM) of the same compound?
Its value is 1207.03 and 1153.12.

And the “GUS activity (hydrolysis rate of MUG)” value (HsGUS (human GUS); [Inhibitor 2] =75 μM, [MUG] 0.8 mM)?
Its value is 1515.37 and 1395.3.

And the “GUS activity (hydrolysis rate of MUG)” value (HsGUS (human GUS); [Inhibitor 2] =75 μM, [MUG] 1.2 mM)?
Its value is 1853.64 and 1948.04.

And the “GUS activity (hydrolysis rate of MUG)” value (HsGUS (human GUS); [Inhibitor 2] =75 μM, [MUG] 1.6 mM)?
The value was 2229.7 and 2415.81.

What about the “GUS activity (hydrolysis rate of MUG)” value (HsGUS (human GUS); [Inhibitor 2] =75 μM, [MUG] 2 mM) of the same compound?
The value was 2629.91 and 2703.96.

And the “ΔΔH1–2 (enthalpy penalty of 2 relative to 1)” value (BdGUS; BdGUS in Tris buffer)?
Its value is “+8.5 kcal mol^−1”.

And the “–TΔΔS1–2 (2 relative to 1)” value (BdGUS; BdGUS in Tris buffer)?
The value was -6.2 kcal/mol.

And the “entropy contribution to binding” value (BdGUS; BdGUS in Tris buffer, sign (positive = favourable))?
Its value is “+4.6 kcal mol^−1”.

What about the Kd (BdGUS; [2]) of the same compound?
Its Kd is 14.5 ± 3.55 µM.

And the ΔG (BdGUS; [2])?
Its ΔG is “–6.60 ± 0.15 kcal/mol”.

What about the ΔH (BdGUS; [2]) of the same compound?
The ΔH was “–1.97 ± 0.15 kcal/mol”.

And the “—TΔS” value (BdGUS; [2])?
The value was “–4.64 ± 0.30 kcal/mol”.

What about the pKa [1] of the same compound?
Its pKa is 9.4.
